Experimental data reported in ChEMBL document CHEMBL1201862, “PubChem BioAssay data set” (2004).
Calls of active or inactive are those of the source.

Assays:
[1] = molecular target: T1, Tyrosine-protein phosphatase non-receptor type 7 (Homo sapiens, UniProt P35236); assay type: functional
T1 sequence (P35236 whole entry): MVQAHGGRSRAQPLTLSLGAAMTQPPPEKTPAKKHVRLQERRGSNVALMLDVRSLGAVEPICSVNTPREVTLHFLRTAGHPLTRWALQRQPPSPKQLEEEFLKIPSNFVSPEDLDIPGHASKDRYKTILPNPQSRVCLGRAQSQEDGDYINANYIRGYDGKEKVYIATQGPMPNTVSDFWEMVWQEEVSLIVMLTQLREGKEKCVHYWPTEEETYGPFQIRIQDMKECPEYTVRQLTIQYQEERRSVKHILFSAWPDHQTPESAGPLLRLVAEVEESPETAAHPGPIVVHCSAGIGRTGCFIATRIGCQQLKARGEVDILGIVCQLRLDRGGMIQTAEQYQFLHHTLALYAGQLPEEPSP

[2] = molecular target: T2, Tyrosine-protein phosphatase non-receptor type 22 (Homo sapiens, UniProt Q9Y2R2); assay type: functional
T2 sequence (Q9Y2R2 whole entry): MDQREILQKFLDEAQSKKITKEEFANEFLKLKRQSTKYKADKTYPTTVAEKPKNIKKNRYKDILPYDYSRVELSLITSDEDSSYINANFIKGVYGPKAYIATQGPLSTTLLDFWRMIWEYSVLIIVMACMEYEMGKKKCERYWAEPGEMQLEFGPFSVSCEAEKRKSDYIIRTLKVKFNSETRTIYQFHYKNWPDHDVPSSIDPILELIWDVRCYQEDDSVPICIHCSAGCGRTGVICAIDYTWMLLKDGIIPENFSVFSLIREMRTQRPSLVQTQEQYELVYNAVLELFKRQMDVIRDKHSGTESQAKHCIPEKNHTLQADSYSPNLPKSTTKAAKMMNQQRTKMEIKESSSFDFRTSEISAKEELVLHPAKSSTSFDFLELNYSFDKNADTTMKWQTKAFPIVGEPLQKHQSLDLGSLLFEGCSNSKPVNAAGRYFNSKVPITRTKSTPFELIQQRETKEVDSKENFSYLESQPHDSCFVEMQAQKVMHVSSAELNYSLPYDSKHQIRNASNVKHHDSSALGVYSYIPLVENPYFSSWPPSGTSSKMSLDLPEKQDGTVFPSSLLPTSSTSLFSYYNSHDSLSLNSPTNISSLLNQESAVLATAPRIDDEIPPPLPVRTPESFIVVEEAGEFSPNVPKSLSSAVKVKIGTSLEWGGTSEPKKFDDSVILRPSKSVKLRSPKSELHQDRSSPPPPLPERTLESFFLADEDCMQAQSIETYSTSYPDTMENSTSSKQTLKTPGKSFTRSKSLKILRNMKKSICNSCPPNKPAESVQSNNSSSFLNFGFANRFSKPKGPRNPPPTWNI

Large T antigen = Large T antigen (Simian virus 40, UniProt P03070); assay type: functional, Betapolyomavirus macacae;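 also: Confirmatory-stage PubChem screen for compounds that inhibit SV40 T antigen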
[3] = molecular target: T2, Tyrosine-protein phosphatase non-receptor type 22; assay type: functional; remark: listed apart in the source
HEK293 [4] = assay: NOD2 signaling inhibitors in MDP-stimulated cells, cell-based, uHTS, luminescence (AID 2001); assay type: functional; conditions: Homo sapiens
[5] = molecular target: Nucleotide-binding oligomerization domain-containing protein 1 (Homo sapiens, UniProt Q9Y239); assay: NOD1 signaling inhibitors, SAR follow-up, revised (AID 2333); assay type: functional
HEK293 [6] = assay: NOD1 signaling inhibitors, primary screen, cell-based, luminescence, uHTS (AID 1578); assay type: functional; conditions: Homo sapiens
[7] = molecular target: T3, Nucleotide-binding oligomerization domain-containing protein 2 (Homo sapiens, UniProt Q9HC29); assay: PubChem AID 2334; assay type: functional
HEK293 [8] = assay: cells; assay type: functional, cell-based; conditions: Homo sapiens
HEK293 [9] = assay: cells; assay type: functional, cell-based; conditions: Homo sapiens; remark: listed apart in the source
[10] = molecular target: T3, Nucleotide-binding oligomerization domain-containing protein 2; assay: NOD2 signaling inhibitors, cell-based, luminescence, uHTS, HEK293 (AID 1566); assay type: functional
Tumor necrosis factor = Tumor necrosis factor (Homo sapiens, UniProt P01375); assay: TNFa-triggered NF-kB activation inhibitors, SAR follow-up, cell-based, revised (AID 2337); assay type: functional
HEK293 [11] = assay: cells; conditions: Homo sapiens
HEK293 [12] = assay: cells; assay type: functional, cell-based; conditions: Homo sapiens; remark: listed apart in the source
[13] = molecular target: T4, Carboxy-terminal domain RNA polymerase II polypeptide A small phosphatase 1 (Homo sapiens, UniProt Q9GZU7); assay: inhibitors of CTDSP1, concentration-response testing, biochemical assay, absorbance-based, actives from ultra-high-throughput screening (AID 540297); assay type: functional
T4 sequence (Q9GZU7 whole entry): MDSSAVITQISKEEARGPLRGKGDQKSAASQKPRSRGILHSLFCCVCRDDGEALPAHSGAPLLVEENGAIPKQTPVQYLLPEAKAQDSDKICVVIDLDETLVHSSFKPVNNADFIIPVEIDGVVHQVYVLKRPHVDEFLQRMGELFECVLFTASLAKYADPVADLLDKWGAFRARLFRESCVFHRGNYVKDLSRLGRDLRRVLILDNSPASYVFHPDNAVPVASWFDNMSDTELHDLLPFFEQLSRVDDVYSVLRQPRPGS

Streptokinase A = molecular target: T5, Streptokinase A (Streptococcus pyogenes serotype M1, UniProt P10520); assay: S. pyogenes streptokinase expression inhibitors, potency, dose response, plasminogen activation absorbance, OD405 (AID 1914); assay type: functional, Streptococcus pyogenes M1 GAS;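 also: secreted streptokinase activity via plasminogen activation per viability signal from cell pellet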
T5 sequence (P10520 whole entry): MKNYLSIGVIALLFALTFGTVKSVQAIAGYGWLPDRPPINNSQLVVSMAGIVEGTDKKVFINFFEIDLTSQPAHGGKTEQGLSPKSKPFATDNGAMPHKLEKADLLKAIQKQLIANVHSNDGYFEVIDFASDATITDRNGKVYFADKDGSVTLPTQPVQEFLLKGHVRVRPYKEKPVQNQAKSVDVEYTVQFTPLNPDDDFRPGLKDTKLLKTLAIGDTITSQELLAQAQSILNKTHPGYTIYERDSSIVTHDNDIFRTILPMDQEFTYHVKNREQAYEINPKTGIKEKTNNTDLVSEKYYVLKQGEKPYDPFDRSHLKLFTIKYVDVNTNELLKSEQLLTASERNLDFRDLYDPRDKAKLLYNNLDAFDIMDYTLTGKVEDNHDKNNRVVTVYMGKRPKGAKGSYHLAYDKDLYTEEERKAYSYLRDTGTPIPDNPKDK

[14] = molecular target: T6, E3 ubiquitin-protein ligase XIAP (Homo sapiens, UniProt P98170); assay: XIAP antagonists, biochemical, IAP family, fluorescence polarization (AID 1018); assay type: functional
[15] = molecular target: T6, E3 ubiquitin-protein ligase XIAP; assay: Counter Screen using XIAP-Bir3 for Chemical Antagonists of Bir1/2 domains of IAP-family anti-apoptotic proteins. [Related pubchem assays (depositor defined):AID1018, AID1449, AID1514, AID1638, AID1749, AID1750, AID488957, AID488963]
Streptococcus = assay: Group A Streptococcus viability loss, dose response, counter-screen for streptokinase expression inhibitor project, luminescence, BacTiterGlo (AID 1915); assay type: functional, organism-based;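 also: potency for reduction of bacterial viability or growth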
[16] = test system: Streptococcus sp. 'group A'; assay: growth inhibition of control SK(-) GAS strain, dose response, counter-screen for streptokinase expression inhibitor project, luminescence, kanamycin, BacTiterGlo, confirmation (AID 1900); assay type: functional, organism-based
[17] = molecular target: T7, Dual specificity protein phosphatase 3 (Homo sapiens, UniProt P51452); assay: VHR1 phosphatase inhibitors, primary screen, biochemical, absorbance, uHTS (AID 1654)
[18] = molecular target: T8, Dual specificity protein phosphatase 6 (Rattus norvegicus, UniProt Q64346); assay: MKP-3 phosphatase inhibitors, primary screen, biochemical, rat enzyme, in vitro (AID 425)
T8 sequence (Q64346 whole entry): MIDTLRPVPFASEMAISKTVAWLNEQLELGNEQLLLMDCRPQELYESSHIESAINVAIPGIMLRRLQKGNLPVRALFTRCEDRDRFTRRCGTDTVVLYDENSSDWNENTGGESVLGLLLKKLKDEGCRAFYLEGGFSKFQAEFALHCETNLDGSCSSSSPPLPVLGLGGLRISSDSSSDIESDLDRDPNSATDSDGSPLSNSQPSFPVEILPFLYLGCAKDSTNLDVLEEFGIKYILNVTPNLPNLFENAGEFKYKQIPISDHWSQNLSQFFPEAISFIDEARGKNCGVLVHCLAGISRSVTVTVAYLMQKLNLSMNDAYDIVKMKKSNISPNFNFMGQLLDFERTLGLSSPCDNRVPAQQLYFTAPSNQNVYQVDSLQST

Cysteine protease ATG4B = molecular target: T9, Cysteine protease ATG4B (Homo sapiens, UniProt Q9Y4P1); assay type: functional;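 also: Fluorescence-based dose-response confirmation assay measuring inhibition of ATG4B activity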
T9 sequence (Q9Y4P1 whole entry): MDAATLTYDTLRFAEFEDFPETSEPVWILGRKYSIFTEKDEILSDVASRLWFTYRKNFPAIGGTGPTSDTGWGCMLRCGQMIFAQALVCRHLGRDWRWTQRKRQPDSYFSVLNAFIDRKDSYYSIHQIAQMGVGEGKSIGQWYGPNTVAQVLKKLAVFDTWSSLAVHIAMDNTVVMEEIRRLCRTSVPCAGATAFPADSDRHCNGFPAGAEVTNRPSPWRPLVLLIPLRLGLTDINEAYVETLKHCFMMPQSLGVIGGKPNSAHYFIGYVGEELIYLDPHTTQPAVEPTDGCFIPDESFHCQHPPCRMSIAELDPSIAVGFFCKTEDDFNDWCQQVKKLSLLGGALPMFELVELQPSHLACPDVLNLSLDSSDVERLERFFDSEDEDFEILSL

Phospholipase A2 = Phospholipase A2 (Homo sapiens, UniProt P04054); assay type: functional;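 also: confirmatory dose-response counterscreen on phospholipase A2, testing hits that came from an ultra-high-throughput screen for ATG4B inhibitors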
[19] = molecular target: T7, Dual specificity protein phosphatase 3; assay: VHR1 phosphatase inhibitors, biochemical (AID 1878)

T3 sequence (Q9HC29 whole entry, the tested form may be a part): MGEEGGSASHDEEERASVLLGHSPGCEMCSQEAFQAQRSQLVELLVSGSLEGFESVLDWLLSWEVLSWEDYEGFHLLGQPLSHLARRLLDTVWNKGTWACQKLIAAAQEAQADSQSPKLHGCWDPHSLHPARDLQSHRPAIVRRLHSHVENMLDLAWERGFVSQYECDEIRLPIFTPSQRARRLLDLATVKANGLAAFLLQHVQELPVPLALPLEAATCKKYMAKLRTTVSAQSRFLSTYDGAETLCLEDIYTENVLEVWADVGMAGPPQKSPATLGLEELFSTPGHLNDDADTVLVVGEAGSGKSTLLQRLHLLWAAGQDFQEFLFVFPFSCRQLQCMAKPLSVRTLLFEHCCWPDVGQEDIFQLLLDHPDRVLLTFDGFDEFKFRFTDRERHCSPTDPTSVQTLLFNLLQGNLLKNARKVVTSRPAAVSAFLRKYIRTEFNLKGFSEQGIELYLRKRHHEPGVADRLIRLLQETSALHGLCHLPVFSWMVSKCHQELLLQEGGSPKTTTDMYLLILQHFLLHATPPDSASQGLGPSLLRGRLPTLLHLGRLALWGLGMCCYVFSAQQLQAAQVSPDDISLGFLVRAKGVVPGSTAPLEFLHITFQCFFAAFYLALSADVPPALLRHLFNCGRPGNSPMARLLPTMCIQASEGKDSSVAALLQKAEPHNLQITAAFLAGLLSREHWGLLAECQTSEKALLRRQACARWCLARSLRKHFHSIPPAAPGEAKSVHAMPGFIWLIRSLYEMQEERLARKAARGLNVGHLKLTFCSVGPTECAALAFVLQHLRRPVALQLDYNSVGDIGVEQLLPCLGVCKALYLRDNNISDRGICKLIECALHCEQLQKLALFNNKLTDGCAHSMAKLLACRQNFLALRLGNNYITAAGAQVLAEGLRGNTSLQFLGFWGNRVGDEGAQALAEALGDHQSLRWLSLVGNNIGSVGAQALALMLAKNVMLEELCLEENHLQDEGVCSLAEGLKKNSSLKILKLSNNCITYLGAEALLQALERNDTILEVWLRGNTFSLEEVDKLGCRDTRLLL
T7 sequence (P51452 whole entry): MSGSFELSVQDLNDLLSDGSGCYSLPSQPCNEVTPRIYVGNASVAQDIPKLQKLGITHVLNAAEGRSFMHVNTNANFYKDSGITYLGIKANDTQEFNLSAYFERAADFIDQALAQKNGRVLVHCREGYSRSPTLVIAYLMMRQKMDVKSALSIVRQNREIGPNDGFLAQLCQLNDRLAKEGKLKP
Sequence of Tumor necrosis factor (P01375 whole entry): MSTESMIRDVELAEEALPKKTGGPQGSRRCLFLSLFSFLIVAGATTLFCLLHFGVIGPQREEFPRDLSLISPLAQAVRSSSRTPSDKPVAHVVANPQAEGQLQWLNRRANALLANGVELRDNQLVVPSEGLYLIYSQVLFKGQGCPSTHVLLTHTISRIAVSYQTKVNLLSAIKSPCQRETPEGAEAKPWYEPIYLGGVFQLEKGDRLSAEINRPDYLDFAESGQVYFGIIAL
T6 sequence (P98170 whole entry): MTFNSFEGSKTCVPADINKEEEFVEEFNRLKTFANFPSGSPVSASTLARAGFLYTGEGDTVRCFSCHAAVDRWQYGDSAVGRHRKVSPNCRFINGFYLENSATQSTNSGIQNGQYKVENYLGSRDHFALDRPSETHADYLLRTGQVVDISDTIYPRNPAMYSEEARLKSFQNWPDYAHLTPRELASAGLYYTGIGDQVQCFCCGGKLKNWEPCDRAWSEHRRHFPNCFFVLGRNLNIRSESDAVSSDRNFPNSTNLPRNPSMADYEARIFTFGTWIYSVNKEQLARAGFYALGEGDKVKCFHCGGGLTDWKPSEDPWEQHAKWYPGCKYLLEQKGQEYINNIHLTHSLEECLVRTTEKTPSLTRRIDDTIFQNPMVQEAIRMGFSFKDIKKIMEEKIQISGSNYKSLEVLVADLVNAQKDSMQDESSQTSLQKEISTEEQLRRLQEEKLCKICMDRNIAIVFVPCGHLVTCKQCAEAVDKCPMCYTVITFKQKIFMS
Sequence of Nucleotide-binding oligomerization domain-containing protein 1 (Q9Y239 whole entry, the tested form may be a part): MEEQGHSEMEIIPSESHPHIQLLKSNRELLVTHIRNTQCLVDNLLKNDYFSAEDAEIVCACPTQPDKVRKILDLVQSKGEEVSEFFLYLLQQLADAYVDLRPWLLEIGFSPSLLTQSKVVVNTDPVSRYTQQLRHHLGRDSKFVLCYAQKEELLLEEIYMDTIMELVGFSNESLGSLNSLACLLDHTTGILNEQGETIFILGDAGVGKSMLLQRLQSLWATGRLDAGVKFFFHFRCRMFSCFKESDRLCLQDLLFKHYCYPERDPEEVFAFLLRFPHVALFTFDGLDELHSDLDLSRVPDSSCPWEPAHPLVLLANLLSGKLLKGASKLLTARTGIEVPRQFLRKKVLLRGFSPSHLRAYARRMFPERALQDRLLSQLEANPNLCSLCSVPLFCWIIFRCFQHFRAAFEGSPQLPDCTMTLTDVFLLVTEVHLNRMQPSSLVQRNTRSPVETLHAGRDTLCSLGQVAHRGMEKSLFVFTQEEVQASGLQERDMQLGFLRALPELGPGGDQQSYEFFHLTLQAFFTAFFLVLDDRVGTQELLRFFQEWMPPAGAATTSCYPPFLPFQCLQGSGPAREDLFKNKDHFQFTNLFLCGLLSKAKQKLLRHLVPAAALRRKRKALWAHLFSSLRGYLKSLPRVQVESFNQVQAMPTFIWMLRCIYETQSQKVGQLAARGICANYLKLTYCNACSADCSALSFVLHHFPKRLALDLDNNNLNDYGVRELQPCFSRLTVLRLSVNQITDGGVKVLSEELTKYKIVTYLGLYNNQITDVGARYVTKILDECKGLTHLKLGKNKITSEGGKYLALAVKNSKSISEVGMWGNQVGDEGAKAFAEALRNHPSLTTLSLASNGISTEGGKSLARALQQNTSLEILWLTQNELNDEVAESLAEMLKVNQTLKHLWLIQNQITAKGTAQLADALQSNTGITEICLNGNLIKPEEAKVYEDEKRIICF
Sequence of Phospholipase A2 (P04054 whole entry): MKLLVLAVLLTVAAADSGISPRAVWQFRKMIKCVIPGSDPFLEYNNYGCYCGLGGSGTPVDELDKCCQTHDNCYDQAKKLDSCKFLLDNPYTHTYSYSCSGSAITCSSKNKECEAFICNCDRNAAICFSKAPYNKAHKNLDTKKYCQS
Sequence of Large T antigen (P03070 whole entry): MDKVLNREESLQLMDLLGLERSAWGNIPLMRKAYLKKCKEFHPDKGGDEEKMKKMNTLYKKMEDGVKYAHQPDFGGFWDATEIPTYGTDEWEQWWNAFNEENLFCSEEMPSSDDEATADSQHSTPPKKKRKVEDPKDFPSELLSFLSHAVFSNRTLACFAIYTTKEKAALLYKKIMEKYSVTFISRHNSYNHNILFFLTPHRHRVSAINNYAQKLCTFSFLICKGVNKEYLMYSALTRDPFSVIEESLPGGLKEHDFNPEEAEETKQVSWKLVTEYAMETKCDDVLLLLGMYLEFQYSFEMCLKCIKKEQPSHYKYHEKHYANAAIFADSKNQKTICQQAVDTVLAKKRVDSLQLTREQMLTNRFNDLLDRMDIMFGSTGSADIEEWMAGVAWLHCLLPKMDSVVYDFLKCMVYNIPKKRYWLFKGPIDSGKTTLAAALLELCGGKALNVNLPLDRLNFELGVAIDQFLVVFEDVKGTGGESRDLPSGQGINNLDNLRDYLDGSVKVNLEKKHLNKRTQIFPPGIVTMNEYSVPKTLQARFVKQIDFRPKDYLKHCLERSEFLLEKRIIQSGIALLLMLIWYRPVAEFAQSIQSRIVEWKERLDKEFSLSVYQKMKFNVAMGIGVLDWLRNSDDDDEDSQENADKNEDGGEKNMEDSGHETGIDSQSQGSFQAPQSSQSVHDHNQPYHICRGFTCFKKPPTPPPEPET

C=CCc1cccc2cc(C(=O)Nc3ccc(S(=O)(=O)Nc4nnc(CC)s4)cc3)c(=O)oc12
IC50 [1]: 6.18 µM (active) | IC50 [2]: 9.43 µM (active) | IC50 (Large T antigen): 83.2 µM (active) | IC50 [3]: 8.58 µM (active)

O=C(c1ccc(S(=O)(=O)N2CCCCC2)cc1)N1CCN(CCN2C(=O)c3cccc4cccc(c34)C2=O)CC1
IC50 (HEK293 [4]): 8.84 µM (active) | IC50 [5]: 6.08 µM (active) | EC50 (HEK293 [6]): > 20 µM (inactive) | IC50 [7]: 6.79 µM (active) | IC50 (HEK293 [8]): > 20 µM (inactive) | IC50 (HEK293 [9]): 6.57 µM (active) | EC50 [10]: > 20 µM (inactive) | IC50 (Tumor necrosis factor): 5.55 µM (active) | IC50 (HEK293 [11]): > 20 µM (inactive) | IC50 (HEK293 [12]): > 20 µM (inactive)

Clc1cc(CSc2ccccc2)nc(-c2ccccc2)n1
IC50 [13]: 14.1 µM (active) | EC50 (Streptokinase A): 33.8 µM (active) | IC50 [14]: > 100 µM (not active) | IC50 [15]: > 100 µM (inactive) | EC50 (Streptococcus): > 150 µM (not active) | EC50 [16]: > 150 µM (not active)

O=C(Nc1nc2ccccc2n1Cc1ccccc1Cl)c1ccc(Cl)cc1
IC50 [5]: > 20 µM (inactive) | IC50 [7]: > 20 µM (inactive) | IC50 (Tumor necrosis factor): > 20 µM (inactive) | IC50 (HEK293 [11]): > 20 µM (inactive)

O=C(N/N=C/c1ccccc1Cl)c1nc(O)c2cc([N+](=O)[O-])ccc2n1
IC50 [17]: 12.8 µM (active) | IC50 [13]: 6.91 µM (active) | IC50 [18]: > 158 µM (not active) | IC50 (Cysteine protease ATG4B): 10.1 µM (active) | IC50 (Phospholipase A2): 30.2 µM (inactive) | IC50 [19]: > 158 µM (inactive)
